We go through 2 compounds from US10316080B2, “Protein-polymer-drug conjugates” (priority 2013, dated 2019).

One data set relates to JIMT1 cells. Put plainly: Cell viability assay (Cell Titer-Glo). It is filed as cell-based. The following applies: 72 h incubation; HER2 medium expression. A general note: In ATP-based viability assays light output follows the ATP content of the culture.
The test system of the next data set is MCF7 cells. Put plainly: Cell viability assay (Cell Titer-Glo). The following applies: 72 h incubation; HER2 low expressing cells. It is filed as cell-based.
Data set [1] can be described thus: Mouse tissue distribution after administration of PBRM-polymer-drug conjugates. It is filed as in vivo, mice.
Protocol: To determine the concentration of the free drug in the sample, the acidified sample was treated with acetonitrile. The free drug was extracted from the supernatant and analyzed by LC-MS/MS.
Female CB-17 SCID mice were inoculated subcutaneously with BT474 tumors (n=4 for each group).
At 48 hours post administration, the mice were sacrificed and the blood was collected by terminal cardiac.
The next data set has as its system NCI-N87 cells. Put plainly: Cell viability assay (Cell Titer-Glo). In kind it is cell-based. The following applies: 72 h incubation.
Another data set deals with LLC1 cells. Briefly: Cell viability assay (Cell Titer-Glo). It is filed as cell-based. The following applies: 5T4 negative control cells; second of two experiments.
The test system of a further data set is HL-60 cells. Put plainly: Cell viability assay (Cell Titer-Glo). The following applies: 72 h incubation; CD33 expressing cells. It is filed as cell-based. The procedure: Dose response curves were generated using SoftMax Pro software. IC50 values were determined from four-parameter curve fitting.
CD33 expressing cells HL-60 were passed at a density of 5,000 cells per well and treated with PBRM-polymer-drug conjugate on the same day. After 72 h incubation, the cells were analyzed using the same procedure described above.

In a further data set the test system is BT474 cells. Briefly: Cell viability assay (Cell Titer-Glo). It is filed as cell-based. As to conditions: 72 h incubation.
Another data set relates to A431 cells. Put plainly: Cell viability assay (Cell Titer-Glo). It is filed as cell-based. The following applies: first of two experiments (first value in cell).
The target of another data set is hErbB2 (Homo sapiens, UniProt P04626). Put plainly: Ligand binding by surface plasmon resonance (SPR). The following applies: 25° C., immobilized hErbB2. In general terms: In SPR one partner is held on a chip, and binding of the other changes the refractive index at the surface.
The subject of a further data set is SKBR3 cells. Put plainly: Cell viability assay (Cell Titer-Glo). It is filed as cell-based. As to conditions: 72 h incubation.

Protocol for A431 cells: (§1) PBRM-polymer-drug conjugates were evaluated for their antiproliferation properties in tumor cell lines in vitro using Cell Titer-Glo (Promega Corp). Cells were plated in black walled 96-well plate and allowed to adhere overnight at 37° C. in a humidified atmosphere of 5% CO2. SKBR3, BT474, NCI-N87 cells (HER2 expressing cells), MCF7 cells (HER2 low expressing levels cells) and JIMT1 cells (HER2 medium expression level cells) were plated at a density of 5,000 cells per well. The next day the medium was replaced with 50 μL fresh medium and 50 μL of 2× stocks of PBRM-polymer-drug conjugate, drug polymer conjugate or drug were added to appropriate wells, mixed and incubated for 72 h. Cell Titer-Glo reagent was added to the wells at room temperature and the luminescent signal was measured after 10 min using a SpectraMax M5 plate reader (Molecular Devices). Dose response curves were generated using SoftMax Pro software. IC50 values were determined from four-parameter curve fitting.
Protocol for BT474 cells: as §1
Protocol for JIMT1 cells: as §1
Protocol for LLC1 cells: as §1
Protocol for MCF7 cells: as §1
Protocol for NCI-N87 cells: as §1
Protocol for SKBR3 cells: as §1
Protocol for hErbB2: The kinetic binding of the PBRM-polymer-drug conjugate to an immobilized receptor was determined by BIAcore SPR.

As for `CC[C@H](C)[C@@H]([C@@H](CC(=O)N1CCC[C@H]1[C@H](OC)[C@@H](C)C(=O)N[C@@H](Cc1ccccc1)C(=O)NCCCO)OC)N(C)C(=O)[C@@H](NC(=O)[C@H](C(C)C)N(C)C)C(C)C` [AF-HPA, auristatin F hydroxypropyl amide], the IC50 (commonly the concentration at which inhibition is half-maximal) was 0.86 nM in the data set with JIMT1 cells; 4.4 nM with MCF7 cells; 0.42 nM in the data set with NCI-N87 cells; over 100 nM with LLC1 cells; 4.8 nM in the data set on HL-60 cells; 1.01 nM with BT474 cells. The concentration for half-maximal inhibition (IC50) in the data set on A431 cells was found to be 0.7 nM. For the same compound, the “Metabolism of released unconjugated AF-HPA in plasma” value in [1] (in plasma) is given as “not converted to AF”. Besides, in data set [1] (in tissue), the “Metabolism of released unconjugated AF-HPA in tissue” value is reported as “further metabolized to AF”.

As to ado-trastuzumab emtansine [Kadcyla ®], the IC50 with JIMT1 cells amounted to 18 nM; in the data set with MCF7 cells, 38.6 nM; in the data set with NCI-N87 cells, 0.09 nM; in the data set with SKBR3 cells, 0.23 nM; with BT474 cells, 2.4 nM. The “ka (association rate constant)” value on hErbB2 was 4.61 ± 0.2 × 10^5 M^−1s^−1. Besides, the “kd (dissociation rate constant)” value on hErbB2 is recorded as 3.17 ± 0.9 × 10^−5 s^−1.
